Measured values reported in the NIST ThermoML archive (doi:10.1016/j.jct.2011.04.018).
Numbers after ± are expanded uncertainties.

Assay: activity coefficient (dimensionless); of the first substance listed, at infinite dilution; xn = mol fraction of the nth substance listed
Conditions: 101 kPa, Liquid, Chromatography, x1 = 0

**Q.** With `C1CCOC1` [tetrahydrofuran] + O=S(=O)([N-]S(=O)(=O)C(F)(F)F)C(F)(F)F.OCCC[n+]1ccccc1 as the compound, how does the activity coefficient (318.15 K) read?
**A.** 0.695 ± 0.047

**Q.** And the activity coefficient (328.15 K)?
**A.** 0.727 ± 0.048

**Q.** What about the activity coefficient (338.15 K) of the same compound?
**A.** 0.757 ± 0.05

**Q.** And the activity coefficient (348.15 K)?
**A.** 0.784 ± 0.051

**Q.** What about the activity coefficient (358.15 K) of the same compound?
**A.** 0.812 ± 0.053

**Q.** And the activity coefficient (368.15 K)?
**A.** 0.839 ± 0.054

**Q.** What about the activity coefficient (378.15 K) of the same compound?
**A.** 0.866 ± 0.055

**Q.** Which activity coefficient (308.15 K) does the source give for `C=CCCCC` [hex-1-ene] + O=S(=O)([N-]S(=O)(=O)C(F)(F)F)C(F)(F)F.OCCC[n+]1ccccc1 here?
**A.** 22.7 ± 1.6

**Q.** What about the activity coefficient (318.15 K) of the same compound?
**A.** 21.2 ± 1.4

**Q.** And the activity coefficient (328.15 K)?
**A.** 19.7 ± 1.3

**Q.** And the activity coefficient (338.15 K)?
**A.** 18.4 ± 1.3

**Q.** What about the activity coefficient (348.15 K) of the same compound?
**A.** 17.3 ± 1.2

**Q.** What about the activity coefficient (358.15 K) of the same compound?
**A.** 16.4 ± 1.1

**Q.** With `CCC(C)(C)OC` [2-methoxy-2-methylbutane] + O=S(=O)([N-]S(=O)(=O)C(F)(F)F)C(F)(F)F.OCCC[n+]1ccccc1 as the compound, how does the activity coefficient (308.15 K) read?
**A.** 4.37 ± 0.3

**Q.** And the activity coefficient (318.15 K)?
**A.** 4.45 ± 0.3

**Q.** And the activity coefficient (328.15 K)?
**A.** 4.54 ± 0.31

**Q.** And the activity coefficient (338.15 K)?
**A.** 4.61 ± 0.31

**Q.** What about the activity coefficient (348.15 K) of the same compound?
**A.** 4.7 ± 0.32

**Q.** What about the activity coefficient (358.15 K) of the same compound?
**A.** 4.77 ± 0.33

**Q.** And the activity coefficient (368.15 K)?
**A.** 4.84 ± 0.33

**Q.** For `CCC(C)(C)C` [2,2-dimethylbutane] + O=S(=O)([N-]S(=O)(=O)C(F)(F)F)C(F)(F)F.OCCC[n+]1ccccc1, which activity coefficient (308.15 K) is on record?
**A.** 41 ± 3

**Q.** What about the activity coefficient (318.15 K) of the same compound?
**A.** 37.3 ± 2.6

**Q.** And the activity coefficient (328.15 K)?
**A.** 33.9 ± 2.3

**Q.** And the activity coefficient (338.15 K)?
**A.** 30.9 ± 2.1

**Q.** And the activity coefficient (348.15 K)?
**A.** 28.5 ± 1.9

**Q.** What about the activity coefficient (358.15 K) of the same compound?
**A.** 26.3 ± 1.8
